Usually AC50 stands for the concentration giving half of the maximal activity seen.

Targets include D(3) dopamine receptor (Homo sapiens, UniProt P35462); Histamine H3 receptor (Homo sapiens, UniProt Q9Y5N1); Mu-type opioid receptor (Homo sapiens, UniProt P35372).
The target of test [1] is T1, Amine oxidase [flavin-containing] A (Homo sapiens, UniProt P21397).
T1 sequence (P21397 whole entry): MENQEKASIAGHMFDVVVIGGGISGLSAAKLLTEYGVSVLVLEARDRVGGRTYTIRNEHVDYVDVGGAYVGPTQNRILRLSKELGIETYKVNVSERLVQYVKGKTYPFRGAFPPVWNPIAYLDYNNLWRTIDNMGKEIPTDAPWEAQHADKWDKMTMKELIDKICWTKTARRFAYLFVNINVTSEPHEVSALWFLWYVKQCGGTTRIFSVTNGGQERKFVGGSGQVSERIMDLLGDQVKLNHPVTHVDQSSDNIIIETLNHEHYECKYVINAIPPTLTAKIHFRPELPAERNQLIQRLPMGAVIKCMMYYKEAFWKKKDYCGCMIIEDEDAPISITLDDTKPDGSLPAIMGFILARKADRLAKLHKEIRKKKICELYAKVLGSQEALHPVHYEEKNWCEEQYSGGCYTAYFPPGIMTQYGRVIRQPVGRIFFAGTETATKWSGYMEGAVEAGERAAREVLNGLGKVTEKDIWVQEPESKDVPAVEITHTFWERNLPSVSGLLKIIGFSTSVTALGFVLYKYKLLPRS
The test is classed as functional.

Test [2] deals with Voltage-gated inwardly rectifying potassium channel KCNH2 (Homo sapiens, UniProt Q12809). The test is classed as functional. As to conditions: read-out: AC50.
The target in test [3] is Sodium-dependent dopamine transporter (Homo sapiens, UniProt Q01959).
Test [4] has as its target cGMP-inhibited 3',5'-cyclic phosphodiesterase 3A (Homo sapiens, UniProt Q14432). The test is classed as functional.
Test [5] deals with T2, Prostaglandin G/H synthase 1 (Homo sapiens, UniProt P23219). The class given is functional.
The next test deals with T3, Progesterone receptor (Homo sapiens, UniProt P06401).
T3 sequence (P06401 whole entry): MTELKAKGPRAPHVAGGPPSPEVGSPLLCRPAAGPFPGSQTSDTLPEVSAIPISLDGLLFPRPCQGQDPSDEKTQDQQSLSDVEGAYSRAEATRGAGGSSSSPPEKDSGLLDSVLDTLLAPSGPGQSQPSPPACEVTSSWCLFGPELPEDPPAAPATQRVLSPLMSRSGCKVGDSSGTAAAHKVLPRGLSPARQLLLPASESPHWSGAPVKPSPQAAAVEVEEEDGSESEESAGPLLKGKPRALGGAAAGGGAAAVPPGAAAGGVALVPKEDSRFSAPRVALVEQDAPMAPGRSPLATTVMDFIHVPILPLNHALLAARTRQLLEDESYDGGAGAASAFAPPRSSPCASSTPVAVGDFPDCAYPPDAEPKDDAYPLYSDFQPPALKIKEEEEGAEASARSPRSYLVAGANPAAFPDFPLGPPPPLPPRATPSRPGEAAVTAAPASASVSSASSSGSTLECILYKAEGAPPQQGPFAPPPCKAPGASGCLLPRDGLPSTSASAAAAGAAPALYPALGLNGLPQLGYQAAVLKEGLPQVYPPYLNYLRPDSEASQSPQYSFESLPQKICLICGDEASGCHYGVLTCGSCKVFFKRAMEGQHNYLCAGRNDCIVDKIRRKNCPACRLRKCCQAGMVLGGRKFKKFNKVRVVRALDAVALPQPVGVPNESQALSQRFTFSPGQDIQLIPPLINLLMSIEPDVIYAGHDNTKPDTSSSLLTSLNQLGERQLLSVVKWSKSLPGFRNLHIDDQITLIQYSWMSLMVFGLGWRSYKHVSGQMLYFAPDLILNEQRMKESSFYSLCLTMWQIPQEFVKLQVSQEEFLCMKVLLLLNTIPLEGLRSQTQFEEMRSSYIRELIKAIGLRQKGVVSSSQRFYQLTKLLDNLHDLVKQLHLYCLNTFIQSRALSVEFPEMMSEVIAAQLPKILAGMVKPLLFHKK

Test [6] addresses T2, Prostaglandin G/H synthase 1. The test is classed as functional. This is another data set of the same source.
For test [7], the target named is Sodium-dependent serotonin transporter (Homo sapiens, UniProt P31645).
Test [8] has as its target Sodium-dependent noradrenaline transporter (Homo sapiens, UniProt P23975).
In the next test the target is T4, Estrogen receptor (Homo sapiens, UniProt P03372).
T4 sequence (P03372 whole entry): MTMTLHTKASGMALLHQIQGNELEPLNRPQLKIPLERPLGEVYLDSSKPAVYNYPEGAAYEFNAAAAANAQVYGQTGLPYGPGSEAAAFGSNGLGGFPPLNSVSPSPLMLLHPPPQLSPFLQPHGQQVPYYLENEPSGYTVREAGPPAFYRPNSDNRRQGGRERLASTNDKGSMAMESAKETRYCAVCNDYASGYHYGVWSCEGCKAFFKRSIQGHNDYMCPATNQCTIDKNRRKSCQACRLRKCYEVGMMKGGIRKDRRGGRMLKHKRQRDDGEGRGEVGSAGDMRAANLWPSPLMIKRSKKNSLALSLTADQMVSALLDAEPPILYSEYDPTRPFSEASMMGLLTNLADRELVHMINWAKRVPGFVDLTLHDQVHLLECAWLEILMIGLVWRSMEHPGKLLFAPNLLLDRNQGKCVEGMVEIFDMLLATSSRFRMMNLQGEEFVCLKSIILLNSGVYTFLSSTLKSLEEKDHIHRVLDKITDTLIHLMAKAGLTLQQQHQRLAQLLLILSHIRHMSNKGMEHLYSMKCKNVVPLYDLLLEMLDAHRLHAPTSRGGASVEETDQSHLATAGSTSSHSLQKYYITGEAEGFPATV
Note: assay procedure not described here.

D(3) dopamine receptor, sequence (P35462 whole entry): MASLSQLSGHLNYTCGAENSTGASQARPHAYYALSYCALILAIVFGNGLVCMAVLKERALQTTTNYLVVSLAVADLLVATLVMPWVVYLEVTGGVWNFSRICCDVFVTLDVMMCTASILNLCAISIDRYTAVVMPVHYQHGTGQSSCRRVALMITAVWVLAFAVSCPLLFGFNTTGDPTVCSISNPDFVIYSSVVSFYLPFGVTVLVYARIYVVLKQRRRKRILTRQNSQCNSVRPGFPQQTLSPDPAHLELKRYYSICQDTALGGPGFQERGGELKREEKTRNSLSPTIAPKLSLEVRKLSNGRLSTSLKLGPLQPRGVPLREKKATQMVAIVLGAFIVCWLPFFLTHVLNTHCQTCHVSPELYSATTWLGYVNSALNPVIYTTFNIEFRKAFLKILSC
Voltage-gated inwardly rectifying potassium channel KCNH2, sequence (Q12809 whole entry): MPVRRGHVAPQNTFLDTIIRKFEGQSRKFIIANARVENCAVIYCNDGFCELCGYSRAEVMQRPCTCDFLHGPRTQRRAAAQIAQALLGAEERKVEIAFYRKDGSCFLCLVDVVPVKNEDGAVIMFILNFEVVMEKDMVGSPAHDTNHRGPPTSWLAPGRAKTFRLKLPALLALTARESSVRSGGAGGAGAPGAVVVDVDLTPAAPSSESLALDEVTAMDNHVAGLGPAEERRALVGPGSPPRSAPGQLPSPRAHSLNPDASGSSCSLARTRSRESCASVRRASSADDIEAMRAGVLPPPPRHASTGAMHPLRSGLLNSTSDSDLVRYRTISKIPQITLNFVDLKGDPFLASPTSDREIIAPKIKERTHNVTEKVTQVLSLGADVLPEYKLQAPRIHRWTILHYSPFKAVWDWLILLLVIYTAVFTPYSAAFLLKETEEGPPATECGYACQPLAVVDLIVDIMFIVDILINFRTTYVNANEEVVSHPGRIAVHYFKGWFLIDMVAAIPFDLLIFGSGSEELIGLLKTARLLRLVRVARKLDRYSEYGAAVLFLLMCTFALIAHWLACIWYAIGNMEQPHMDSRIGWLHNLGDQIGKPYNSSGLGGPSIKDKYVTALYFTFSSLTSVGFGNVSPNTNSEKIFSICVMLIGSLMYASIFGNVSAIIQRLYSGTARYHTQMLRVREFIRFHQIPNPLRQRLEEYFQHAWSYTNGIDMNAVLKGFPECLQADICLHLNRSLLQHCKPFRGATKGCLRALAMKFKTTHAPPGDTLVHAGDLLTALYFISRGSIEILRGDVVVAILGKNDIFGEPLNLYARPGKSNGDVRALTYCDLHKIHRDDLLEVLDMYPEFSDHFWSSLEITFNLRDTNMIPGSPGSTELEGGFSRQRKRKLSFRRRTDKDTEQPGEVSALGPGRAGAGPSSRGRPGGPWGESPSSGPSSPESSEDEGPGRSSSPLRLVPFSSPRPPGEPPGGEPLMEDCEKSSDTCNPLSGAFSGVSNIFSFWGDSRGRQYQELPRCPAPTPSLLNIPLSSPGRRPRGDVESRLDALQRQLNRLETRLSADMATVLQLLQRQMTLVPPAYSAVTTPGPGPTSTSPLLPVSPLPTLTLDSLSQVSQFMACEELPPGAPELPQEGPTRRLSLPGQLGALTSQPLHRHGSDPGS
cGMP-inhibited 3',5'-cyclic phosphodiesterase 3A, sequence (Q14432 whole entry): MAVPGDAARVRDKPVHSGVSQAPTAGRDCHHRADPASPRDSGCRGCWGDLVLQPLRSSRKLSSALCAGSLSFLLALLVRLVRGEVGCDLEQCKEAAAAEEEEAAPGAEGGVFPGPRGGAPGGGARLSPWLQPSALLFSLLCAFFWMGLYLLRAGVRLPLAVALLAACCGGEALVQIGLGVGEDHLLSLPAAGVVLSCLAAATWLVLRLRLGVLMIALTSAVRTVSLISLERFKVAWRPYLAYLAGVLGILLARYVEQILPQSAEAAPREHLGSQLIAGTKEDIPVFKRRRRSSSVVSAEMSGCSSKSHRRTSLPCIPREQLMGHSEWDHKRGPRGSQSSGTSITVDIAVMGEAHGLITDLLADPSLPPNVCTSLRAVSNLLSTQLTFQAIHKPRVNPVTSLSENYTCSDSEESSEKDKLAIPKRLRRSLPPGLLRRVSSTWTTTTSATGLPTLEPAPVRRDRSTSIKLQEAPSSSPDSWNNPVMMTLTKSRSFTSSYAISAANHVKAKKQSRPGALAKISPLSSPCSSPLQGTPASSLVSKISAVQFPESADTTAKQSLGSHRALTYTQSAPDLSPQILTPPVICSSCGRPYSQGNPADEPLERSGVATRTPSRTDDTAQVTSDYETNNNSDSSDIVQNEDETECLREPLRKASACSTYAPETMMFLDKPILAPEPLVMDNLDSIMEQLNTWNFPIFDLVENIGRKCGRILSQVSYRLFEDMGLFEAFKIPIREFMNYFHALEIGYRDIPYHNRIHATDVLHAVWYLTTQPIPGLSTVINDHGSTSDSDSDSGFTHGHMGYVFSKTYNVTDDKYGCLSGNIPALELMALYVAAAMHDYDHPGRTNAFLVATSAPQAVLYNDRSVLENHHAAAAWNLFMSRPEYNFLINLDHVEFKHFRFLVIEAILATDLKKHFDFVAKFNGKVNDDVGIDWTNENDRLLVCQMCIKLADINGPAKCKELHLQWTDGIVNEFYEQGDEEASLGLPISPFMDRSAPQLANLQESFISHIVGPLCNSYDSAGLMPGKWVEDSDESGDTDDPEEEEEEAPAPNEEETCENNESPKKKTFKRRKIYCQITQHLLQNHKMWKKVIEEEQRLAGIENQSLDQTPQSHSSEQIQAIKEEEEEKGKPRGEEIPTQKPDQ
T2 sequence (P23219 whole entry): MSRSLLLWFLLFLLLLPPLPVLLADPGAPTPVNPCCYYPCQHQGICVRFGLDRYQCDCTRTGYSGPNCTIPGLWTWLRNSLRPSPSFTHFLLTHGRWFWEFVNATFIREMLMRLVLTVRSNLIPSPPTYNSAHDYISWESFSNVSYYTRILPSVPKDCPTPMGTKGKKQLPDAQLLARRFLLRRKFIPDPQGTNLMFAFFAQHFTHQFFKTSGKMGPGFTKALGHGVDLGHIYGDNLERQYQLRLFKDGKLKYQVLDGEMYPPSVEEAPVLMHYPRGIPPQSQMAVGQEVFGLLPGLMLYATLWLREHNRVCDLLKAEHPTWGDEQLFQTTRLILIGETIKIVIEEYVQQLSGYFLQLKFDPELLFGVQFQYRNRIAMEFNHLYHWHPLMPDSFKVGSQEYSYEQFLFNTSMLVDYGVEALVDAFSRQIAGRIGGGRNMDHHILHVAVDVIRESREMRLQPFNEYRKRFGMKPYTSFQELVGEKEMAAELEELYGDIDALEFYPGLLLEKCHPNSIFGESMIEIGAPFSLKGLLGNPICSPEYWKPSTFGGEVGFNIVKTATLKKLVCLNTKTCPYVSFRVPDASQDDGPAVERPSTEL
Histamine H3 receptor, sequence (Q9Y5N1 whole entry): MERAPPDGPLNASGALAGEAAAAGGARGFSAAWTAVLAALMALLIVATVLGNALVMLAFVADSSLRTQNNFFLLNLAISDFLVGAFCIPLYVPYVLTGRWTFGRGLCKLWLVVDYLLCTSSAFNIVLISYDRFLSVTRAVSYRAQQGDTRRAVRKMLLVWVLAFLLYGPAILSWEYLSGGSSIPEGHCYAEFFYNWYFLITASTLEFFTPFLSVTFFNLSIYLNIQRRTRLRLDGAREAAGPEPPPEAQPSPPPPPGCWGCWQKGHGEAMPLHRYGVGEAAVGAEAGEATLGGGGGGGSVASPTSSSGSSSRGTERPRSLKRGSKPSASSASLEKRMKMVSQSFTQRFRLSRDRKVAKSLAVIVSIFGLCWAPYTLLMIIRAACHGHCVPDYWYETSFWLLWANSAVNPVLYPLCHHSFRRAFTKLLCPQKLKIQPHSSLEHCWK
Mu-type opioid receptor, sequence (P35372 whole entry): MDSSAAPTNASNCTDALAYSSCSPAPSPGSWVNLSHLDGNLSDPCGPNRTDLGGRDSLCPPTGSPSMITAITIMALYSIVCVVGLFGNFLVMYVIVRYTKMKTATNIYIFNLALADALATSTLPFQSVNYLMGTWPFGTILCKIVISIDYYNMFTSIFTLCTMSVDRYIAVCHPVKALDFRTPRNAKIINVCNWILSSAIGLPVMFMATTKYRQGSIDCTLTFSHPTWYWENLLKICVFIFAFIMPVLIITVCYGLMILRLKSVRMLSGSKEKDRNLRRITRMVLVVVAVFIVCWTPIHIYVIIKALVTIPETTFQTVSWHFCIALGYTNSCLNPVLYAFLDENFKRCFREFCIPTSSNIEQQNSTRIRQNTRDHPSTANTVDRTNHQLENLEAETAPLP
Sodium-dependent noradrenaline transporter, sequence (P23975 whole entry): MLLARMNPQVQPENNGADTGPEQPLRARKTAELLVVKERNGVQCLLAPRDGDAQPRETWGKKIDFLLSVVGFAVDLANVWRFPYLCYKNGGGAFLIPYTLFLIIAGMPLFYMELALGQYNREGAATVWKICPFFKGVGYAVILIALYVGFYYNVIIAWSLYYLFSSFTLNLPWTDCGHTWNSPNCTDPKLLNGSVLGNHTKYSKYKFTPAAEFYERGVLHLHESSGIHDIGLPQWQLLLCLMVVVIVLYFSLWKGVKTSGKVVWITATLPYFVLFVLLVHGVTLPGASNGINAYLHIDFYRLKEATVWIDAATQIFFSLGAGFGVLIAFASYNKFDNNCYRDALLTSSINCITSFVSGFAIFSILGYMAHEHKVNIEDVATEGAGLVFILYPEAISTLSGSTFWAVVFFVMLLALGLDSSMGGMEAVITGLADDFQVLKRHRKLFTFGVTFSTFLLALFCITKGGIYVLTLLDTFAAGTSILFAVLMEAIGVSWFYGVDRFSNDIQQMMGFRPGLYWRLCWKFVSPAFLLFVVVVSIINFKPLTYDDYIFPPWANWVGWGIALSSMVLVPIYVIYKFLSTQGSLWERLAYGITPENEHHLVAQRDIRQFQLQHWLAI

As to `CC(C1=C(CCN(C)C)Cc2ccccc21)c1ccccn1` (stereo not drawn), the AC50 is > 30 µM in [1]; 2.7 µM in test [2]; 6.44 µM on D(3) dopamine receptor; > 30 µM in test [3]; 13.2 µM at Histamine H3 receptor; 7.04 µM on Mu-type opioid receptor. The half-maximal activity concentration (AC50) in test [4] is > 30 µM; in [5], 19.4 µM; at Progesterone receptor, > 30 µM; in [6], > 30 µM; in test [7], 13.7 µM; in test [8] it was 11.9 µM.
With `CCn1cc(C(=O)O)c(=O)c2cc(F)c(N3CCNCC3)nc21` [ENOXACIN], the AC50 (in test [1]; in test [2]; on D(3) dopamine receptor; in [3]; at Histamine H3 receptor; on Mu-type opioid receptor) was > 30 µM in each case. Further, the half-maximal activity concentration (AC50) (in [4]; in test [5]; at Progesterone receptor; on Estrogen receptor; in test [6]; in test [8]) was > 30 µM throughout.
`CC(N)CCCC(C)(C)O` (stereo not drawn) [HEPTAMINOL]: the AC50 (in [1]; at D(3) dopamine receptor; in test [3]; on Histamine H3 receptor; on Mu-type opioid receptor; in test [4]) was > 30 µM each time. Also, the half-maximal activity concentration (AC50) (in test [5]; at Progesterone receptor; in [6]; in test [7]; in [8]) was > 30 µM each time.
As for `CNC(=O)Oc1ccc2c(c1)[C@]1(C)CCN(C)[C@@H]1N2C` [PHYSOSTIGMINE], the AC50 in [1] was > 30 µM; in [2], > 30 µM; at D(3) dopamine receptor, > 30 µM; in test [3] it was > 30 µM; at Histamine H3 receptor it was > 30 µM; at Mu-type opioid receptor it was 5.74 µM. The AC50 in test [4] is > 30 µM; in test [5], 4.3 µM; at Progesterone receptor, > 30 µM; on Estrogen receptor, > 30 µM; in test [6], > 10 µM; in test [8], > 30 µM.
With `O=C(Oc1ccccc1C(=O)O)c1ccccc1O` [SALSALATE], the AC50 (in [1]; in test [2]; on D(3) dopamine receptor; in test [3]; on Histamine H3 receptor; at Mu-type opioid receptor) was > 30 µM each time. In addition, the AC50 (in test [4]; in test [5]; on Progesterone receptor; on Estrogen receptor; in test [6]; in [8]) was > 30 µM in each case.
For the compound `c1ccc2[nH]c(-c3cscn3)nc2c1` [THIABENDAZOLE], the AC50 (in test [1]; in [2]; on D(3) dopamine receptor; in test [3]; on Histamine H3 receptor; at Mu-type opioid receptor) was > 30 µM each time. The AC50 (in test [4]; in [5]; at Progesterone receptor; on Estrogen receptor; in [6]; in [8]) was > 30 µM each time.
Turning to `C[C@@H]1C[C@H]2[C@@H]3CCC4=CC(=O)C=C[C@]4(C)C3=CC[C@]2(C)[C@H]1C(=O)CN1CCN(c2cc(N3CCCC3)nc(N3CCCC3)n2)CC1` [TIRILAZAD], the AC50 is > 30 µM in [1]; 1.9 µM in [2]; 9.69 µM at D(3) dopamine receptor; > 30 µM in test [3]; > 30 µM at Histamine H3 receptor; > 30 µM on Mu-type opioid receptor. Besides, the AC50 in [4] was > 30 µM; in test [5], 3.05 µM; on Progesterone receptor it was 6.37 µM; at Estrogen receptor, > 30 µM; in test [6], 3.8 µM; in [8] it was > 30 µM.

The values are drawn from ChEMBL document CHEMBL5291721, “A preclinical secondary pharmacology resource illuminates target-adverse drug reaction associations of marketed drugs” (Nat Commun, 2023).
